Experiments:
Experiment in all cases: relative viability (nuclei count vs DMSO), 5 days (fraction); higher = more cells survive
Trametinib + Pictilisib = compound: CC(=O)Nc1cccc(-n2c(=O)n(C3CC3)c(=O)c3c(Nc4ccc(I)cc4F)n(C)c(=O)c(C)c32)c1 [Trametinib] + CS(=O)(=O)N1CCN(Cc2cc3nc(-c4cccc5[nH]ncc45)nc(N4CCOCC4)c3s2)CC1 [Pictilisib] (partner 1 µM)
Method in brief: (§1)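 Cells from lung cancer lines were seeded into 1536-well plates and, one day later, dosed by pin tool. Treatments were either a single drug or a fixed dose of an anchor drug with five library-drug doses (not always all listed) in √10 steps. After 5 days, nuclei were stained in a one-step fixation (final 0.05% Triton X-100, 1% formaldehyde, 1 ug/ml Hoechst) and counted on 4× images, and relative viability is the treated-to-vehicle nuclei ratio, as the median of duplicate plates.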

Trametinib + Vorinostat = compound: CC(=O)Nc1cccc(-n2c(=O)n(C3CC3)c(=O)c3c(Nc4ccc(I)cc4F)n(C)c(=O)c(C)c32)c1 [Trametinib] + O=C(CCCCCCC(=O)Nc1ccccc1)NO [Vorinostat] (partner 1 µM)
Method in brief: as §1

[1] = compound: CN1C=C(C2=CC=CC=C21)/C=C\3/C4=C(C=CC=N4)NC3=O + CC(=O)c1c(C)c2cnc(Nc3ccc(N4CCNCC4)cn3)nc2n(C2CCCC2)c1=O [Palbociclib] (partner 0.5 µM)
Method in brief: as §1

[2] = compound: CN1C=C(C2=CC=CC=C21)/C=C\3/C4=C(C=CC=N4)NC3=O + C[C@]1(O)C[C@@H](c2nc(-c3ccc4ccc(-c5ccccc5)nc4c3)c3c(N)nccn32)C1 [Linsitinib] (partner 1 µM)
Method in brief: as §1

Cell Line	relative viability (Trametinib + Pictilisib; first compound 0.0025 µM)	relative viability (Trametinib + Pictilisib; first compound 0.007906 µM)	relative viability (Trametinib + Pictilisib; first compound 0.025 µM)	relative viability (Trametinib + Pictilisib; first compound 0.07906 µM)	relative viability (Trametinib + Pictilisib; first compound 0.25 µM)	relative viability (Trametinib + Vorinostat; first compound 0.0025 µM)	relative viability (Trametinib + Vorinostat; first compound 0.007906 µM)	relative viability (Trametinib + Vorinostat; first compound 0.025 µM)	relative viability (Trametinib + Vorinostat; first compound 0.07906 µM)	relative viability (Trametinib + Vorinostat; first compound 0.25 µM)	relative viability ([1]; first compound 0.02 µM)	relative viability ([1]; first compound 0.06325 µM)	relative viability ([1]; first compound 0.2 µM)	relative viability ([1]; first compound 0.6325 µM)	relative viability ([1]; first compound 2 µM)	relative viability ([2]; first compound 0.02 µM)	relative viability ([2]; first compound 0.06325 µM)	relative viability ([2]; first compound 0.2 µM)	relative viability ([2]; first compound 0.6325 µM)	relative viability ([2]; first compound 2 µM)
NCI-H2126	0.456	0.413	0.362	0.372	0.383	0.701	0.514	0.353	0.6	0.446	0.325	0.31	0.348	0.319	0.326	0.739	0.751	0.727	0.745	0.65
HCC-366	0.09	0.138	0.102	0.1	0.0818	0.354	0.291	0.357	0.356	0.106	0.239	0.281	0.338	0.397	0.304	0.616	0.566	0.656	0.575	0.51
LU99A	0.279	0.318	0.217	0.197	0.197	0.546	0.503	0.291	0.397	0.254	0.374	0.417	0.393	0.381	0.432	0.534	0.506	0.509	0.485	0.617
HOP-62	0.597	0.229	0.128	0.133	0.0772	0.648	0.467	0.277	0.301	0.106	0.438	0.415		0.449	0.483	0.923	0.961	1.07	1.03	1.02
HCC-15	0.596	0.232	0.175	0.158	0.182	0.814	0.549	0.395	0.276	0.275	0.708	0.733	0.724	0.685	0.746	0.907	0.841	0.933	0.853	0.976
HARA	0.384	0.342	0.131	0.207	0.213	0.387	0.403	0.298	0.251	0.154	0.257	0.297	0.192	0.257	0.227	0.93	0.92	1.03	0.932	1.06
SK-MES-1	0.282	0.223	0.214	0.171	0.187	0.994	0.894	0.744	0.511	0.337	0.243	0.325	0.316	0.321	0.264	0.937	1.18	1.09	1.02	1.06
NCI-H1355	0.339	0.313	0.199	0.228	0.214	0.605	0.524	0.341	0.377	0.291	0.303	0.369	0.387	0.476	0.517	0.702	0.748	0.73	0.56	0.632
NCI-H727	0.333	0.207	0.176	0.149	0.25	0.961	0.851	0.424	0.387	0.382	0.63	0.575	0.653	0.652	0.623	0.285	0.204	0.282	0.323	0.263
NCI-H520	0.294	0.292	0.259	0.195	0.217	0.868	0.733	0.68	0.691	0.532	0.261	0.227	0.219	0.218	0.218	0.87	0.808	0.963	0.96	1.02
NCI-H838	0.351	0.415		0.319	0.281	0.682	0.591	0.598	0.631	0.568	0.208	0.174	0.214	0.199	0.18	0.662	0.866	0.944	0.904	0.986
HCC-44	0.581	0.428	0.276	0.291	0.272	1.08	1.06	1.09	0.909	0.808	0.902	0.959	0.956	0.934	0.913	0.577	0.637	0.651	0.593	0.604
LK-2	0.457	0.571	0.54	0.575	0.294	0.346	0.288	0.164	0.344	0.326	0.232	0.421	0.447	0.576	0.678	0.365	0.333		0.474	0.504
HCC-827	0.949	0.986	0.959	0.666	0.627	0.903	0.876	0.71	0.677	0.502	0.444	0.462		0.475	0.5	0.929	0.923		0.944	0.926
SW 1573	0.357	0.34	0.339	0.308	0.214	0.755	0.663	0.437	0.491	0.278	0.319	0.391	0.426	0.424	0.485	0.894	0.793	0.914	0.787	0.965
NCI-H2023	0.213	0.141	0.137	0.175	0.143	0.683	0.477	0.472	0.541	0.136	0.412	0.369		0.45	0.372	0.615	0.657	0.628	0.665	0.692
